Experimental data as given in patent US5905089A, “Use of sesquiterpene lactones for treatment of severe inflammatory disorders” (Board of Supervisors of Louisiana State University and …, priority 1998, dated 1999).

Experiments:
[1] = system: Nuclear Factor-kB (NF-kB); assay: NF-kB activated by LPS in RAW 264.7 cells (degradation of IKBα); format: cell-based, murine
Text: Parthenolide inhibits Nuclear Factor--kB (NF-kB) transcription factor that has been activated by LPS in the murine macrophage cell line (RAW 264.7) as assessed by the degradation of the protein, IKBα. Activated NF-kB is known to induce the expression of many early response genes including inducible nitric oxide synthetase, cyclooxygenase, and chemokines that are implicated in acute inflammatory responses.

COX-2 [2] = assay: COX-2 expression in LPS-stimulated RAW 264.7 cells (Western blot); format: cell-based, murine; conditions: LPS 1 μg/ml; FIG. 5D
Description: (§1) Rat (Sprague-Dawley) alveolar macrophages were collected by broncho-alveolar lavage as described by Lee et al., J. Biol. Chem., vol. 267, pp. 25934-25938 (1992). The murine macrophage cell line RAW 264.7 (ATCC no. TIB-71) was cultured in Dubecco's modified Eagle's medium (DMEM) containing 10% heat-inactivated fetal bovine serum (FBS, Intergen). For the cyclooxygenase activity assay, cells were seeded in 24 well plates, and after near-confluency, cells were treated with aspirin (250 μM) for 2.5h to inactivate endogenous cyclooxygenase. […] COX activity was determined by measuring prostaglandin E2 concentrations in cells incubated with arachidonic acid (30 μM) for 10 minutes as described in Lee et al. (1992).
(§2) The protein levels of COX-2 and GAPDH were assessed by Western blot analysis using polyclonal antibodies as described in Lee et al. (1992). Polyclonal antibodies for IL-1α and JNK-1 were purchased from Genzyme and Santa Cruz Biotech, respectively.
(§3) Parthenolide suppressed LPS-stimulated tyrosine phosphorylation of various proteins in RAW 264.7 cells as assessed by antiphosphotyrosine immunoblot, depicted in FIG. 5A. This inhibition was correlated with the suppressed expression of COX-2 and IL-1α. RAW 264.7 cells were pretreated with parthenolide in various concentrations or with herbimycin A (0.5 μg/ml) for 3h, and then stimulated with LPS (1 μg/ml) in the presence of the inhibitors for 30 min. […] Therefore, the extent of tyrosine phosphorylation of JNK-1 was assessed by the electrophoretic mobility shift of phosphorylated JNK-1 as shown in FIG. 5B. Parthenolide inhibited tyrosine phosphorylation of JNK-1. Another protein tyrosine kinase inhibitor, herbimycin A ([…]), inhibited tyrosine phosphorylation of the MAPK subfamily.
(§4) The mechanism by which parthenolide inhibits protein tyrosine phosphorylation is not currently known. It has been speculated that the tyrosine kinase inhibitor herbimycin A inactivates p60^v-src kinase by irreversibly binding to the sulphydryl (SH) groups of p60^v-src kinase. Y. Uehara et al., Biochem. Biophys. Res. Commun., vol. 163, pp. 803-809 (1989). The inactivation by herbimycin may occur through conjugation between highly polarized double bonds in the benzoquinone moiety of herbimycin A and the SH group of sulphydryl compounds. Without wishing to be bound by this theory, the α-methylenebutyrolactone in parthenolide may interact with biological nucleophiles such as sulphydryl groups. Indeed, pretreating cells with sulphydryl compounds abrogated the inhibitory effect of parthenolide on LPS-induced activation of MAPKs as shown in FIG. 6A. […]

COX-2 [3] = assay: COX activity of de novo synthesized COX-2 (PGE2) in LPS-stimulated, aspirin-pretreated alveolar macrophages; format: cell-based, Rat (Sprague-Dawley); conditions: LPS 10 μg/ml, 16h; PGE2 from exogenous arachidonic acid; FIG. 2; read-out: IC50, inhibition of the expression of COX activity
Description: as §1
(§5) Recovered COX activity in cells pretreated with aspirin reflected de novo synthesized COX-2. Alveolar macrophages pretreated with aspirin were incubated with LPS (10 μg/ml) and various concentrations of parthenolide for 16h. The activity of de novo synthesized COX-2 was determined by measuring the levels of PGE2 produced from exogenous arachidonic acid. Activity of TNFα was determined by bioassay using L929 cells as described by Aggarwal et al., J. Biol. Chem., vol. 260, pp. 2345-2354 (1985). […] Values in FIG. 2 are the means of triplicate samples for TNFα and duplicate samples for PGE2.

TNFα mRNA = assay: Steady state levels of TNFα mRNA in LPS-stimulated alveolar macrophages (RNase protection assay); format: cell-based, Rat (Sprague-Dawley); conditions: FIG. 3B (2h) and FIG. 4 (parthenolide 1 μg/ml, time course)
Description: as §1
Total cellular RNA was isolated by TRIzoL reagent (Gibco, BRL). The RNase protection assay was performed as described in Chanmugan et al. (1995).
In FIG. 3B, alveolar macrophages were incubated with LPS in the presence of various concentrations of parthenolide for 2h. Steady state levels of mRNA were determined by RNase protection assay. In FIG. 4, alveolar macrophages were incubated with LPS in presence of 1 μg/ml of parthenolide for specified time periods. The concentrations of mRNA were determined by RNase protection assay.

ERK-2 [4] = assay: Kinase activity of ERK-2 in RAW 264.7 cells (in-gel kinase assay, MBP substrate); format: cell-based, murine; conditions: 3h pretreatment, LPS 1 μg/ml 30 min; FIG. 5
Description: as §1
This assay was performed according to the method described by Kameshita et al., Anal. Biochem., vol. 183, pp. 139-143 (1989) using myelin basic protein (MBP) as a substrate.
(§6) Parthenolide suppressed LPS-stimulated tyrosine phosphorylation of various proteins in RAW 264.7 cells as assessed by antiphosphotyrosine immunoblot, depicted in FIG. 5A. This inhibition was correlated with the suppressed expression of COX-2 and IL-1α. […] Therefore, the extent of tyrosine phosphorylation of JNK-1 was assessed by the electrophoretic mobility shift of phosphorylated JNK-1 as shown in FIG. 5B. […]

ERK-2 [5] = assay: Tyrosine phosphorylation of ERK-2 in RAW 264.7 cells (antiphosphotyrosine immunoblot); format: cell-based, murine; conditions: 3h pretreatment, LPS 1 μg/ml 30 min; FIG. 5A
Description: as §1
(§7) This detection technique was carried out essentially as described in Chanmugan et al. (1995) using 4G10 monoclonal antiphosphotyrosine antibody (UBI) and the ECL detection system (Amersham).
as §6

P38 = assay: Tyrosine phosphorylation of P38 in RAW 264.7 cells (antiphosphotyrosine immunoblot); format: cell-based, murine; conditions: 3h pretreatment, LPS 1 μg/ml 30 min; FIG. 5A
Description: as §1, §7, §6

ERK-1 = assay: Tyrosine phosphorylation of ERK-1 in RAW 264.7 cells (antiphosphotyrosine immunoblot); format: cell-based, murine; conditions: 3h pretreatment, LPS 1 μg/ml 30 min; FIG. 5A
Description: as §1, §7, §6

[6] = system: c-Jun N-terminal kinase-1 (JNK-1); assay: Tyrosine phosphorylation of JNK-1 in RAW 264.7 cells (electrophoretic mobility shift immunoblot); format: cell-based, murine; conditions: 3h pretreatment, LPS 1 μg/ml 30 min; FIG. 5B
Description: as §1, §2, §6

IL-1α = IL-1α expression in LPS-stimulated RAW 264.7 cells (Western blot); format: cell-based, murine; conditions: LPS 1 μg/ml; FIG. 5D
Description: as §1, §2, §3, §4

TNFα = assay: LPS-induced TNFα production in alveolar macrophages (bioassay using L929 cells); format: cell-based, Rat (Sprague-Dawley); conditions: LPS 10 μg/ml, 16h, FIG. 2
Description: as §1, §5

[7] = system: tyrosine phosphorylation of various proteins; assay: LPS-stimulated tyrosine phosphorylation of various proteins in RAW 264.7 cells (antiphosphotyrosine immunoblot); format: cell-based, murine; conditions: 3h pretreatment, LPS 1 μg/ml 30 min; FIG. 5A
Description: as §1, §7, §6

MAPKs = assay: Tyrosine phosphorylation / activation of MAPKs in RAW 264.7 cells; format: cell-based, murine; conditions: 3h pretreatment (herbimycin A 0.5 μg/ml), LPS 1 μg/ml 30 min
Description: as §1, §7, §3
The mechanism by which parthenolide inhibits protein tyrosine phosphorylation is not currently known. It has been speculated that the tyrosine kinase inhibitor herbimycin A inactivates p60^v-src kinase by irreversibly binding to the sulphydryl (SH) groups of p60^v-src kinase. Y. Uehara et al., Biochem. Biophys. Res. Commun., vol. 163, pp. 803-809 (1989). The inactivation by herbimycin may occur through conjugation between highly polarized double bonds in the benzoquinone moiety of herbimycin A and the SH group of sulphydryl compounds. Without wishing to be bound by this theory, the α-methylenebutyrolactone in parthenolide may interact with biological nucleophiles such as sulphydryl groups. Indeed, pretreating cells with sulphydryl compounds abrogated the inhibitory effect of parthenolide on LPS-induced activation of MAPKs as shown in FIG. 6A. In FIG. 6, RAW 264.7 cells were pretreated with parthenolide (1 μg/ml) in the presence of DTT (dithiothreitol, 100 μM), 2-ME (2-mercaptoethanol, 50 μM), or Cys (L-cysteine, 150 μM), and were then stimulated with LPS (1 μg/ml). Cells were incubated for 30 min for antiphosphotyrosine immunoblot analysis (FIG. 6A) and 8h for COX-2 and IL-1α Western blot analyses (FIG. 6B). […] Whether parthenolide inhibits protein tyrosine phosphorylation by directly inhibiting PTKs or by inhibiting other target protein(s) that affect the activity of PTKs is not currently known.

C=C1C(=O)O[C@H]2[C@H]1CC/C(C)=C/CC[C@@]1(C)O[C@@H]21 [Compound 1, Parthenolide]
inhibition of NF-kB transcription factor activated by LPS [1]: inhibits
expression of COX-2 in RAW 264.7 cells (COX-2 [2]): suppressed
IC50 (COX-2 [3]): ~800 nM
steady state levels of mRNA for TNFα (TNFα mRNA): inhibited
kinase activity of ERK-2 (ERK-2 [4]): dose-dependent inhibition
tyrosine phosphorylation of ERK-2 (ERK-2 [5]): inhibited by parthenolide in a dose-dependent manner
tyrosine phosphorylation of P38 (P38): inhibited by parthenolide in a dose-dependent manner
tyrosine phosphorylation of ERK-1 (ERK-1): inhibited by parthenolide in a dose-dependent manner
tyrosine phosphorylation of JNK-1 [6]: inhibited
expression of IL-1α in RAW 264.7 cells (IL-1α): suppressed
IC50, suppression of LPS-induced TNFα production (TNFα): 0.1 µg/mL
LPS-stimulated tyrosine phosphorylation of various proteins [7]: suppressed
tyrosine phosphorylation of the MAPK subfamily (MAPKs): most dramatic inhibition
